Data taken from US10584134B2, “Use of physiological cooling active ingredients, and agents containing such active ingredients” (SYMRISE AG, priority 2009, dated 2020).
Where a name gives a salt, the structure may show the parent alone.

Target: human TRPM8 receptor (Homo sapiens (Human), UniProt Q7Z2W7)
Experiment: Assay on TRPM8 modulators (Ca2+-sensitive dye, HEK293-TRPM8 test cells, EC50 determination)
Type: cell-based
Details: Table A, structure type 1; assay according to reference example 3
Description: As a test cell system the human TRPM8 DNA (see plasmid pInd-M8 above) was used to prepare a stable transfixed HEK293 cell line. Here preference is for HEK293 which via the plasmid introduced offers the possibility of induction of the TRPM8 expression by means of tetracycline.
The agonisation or antagonisation of the receptor can be quantified by means of a Ca^2+-sensitive dye (e.g. FURA, Fluo-4, etc.).
To begin with, in a manner known per se, in cell culture flasks a fresh culture of transformed HEK cells is prepared. The HEK293-TRPM8 test cells are removed using trypsin from the cell culture flasks and 40 000 cells/well are sown with 100 μl medium in 96-well plates (Greiner #655948 Poly-D-lysine coated). In order to induce the TRPM8 receptor the growth medium tetracycline is mixed in (DMEM/HG, 10% FCS tetracycline-free, 4 mM L-glutamine, 15 μg/ml blasticidin, 100 μg/ml hygromycin B, 1 μg/ml tetracycline). The next day the cells are charged with Fluo-4Am dye and the test is performed.
The test substances are used in triplicate in concentrations of between 0.1 and 200 μm in the assay. Normally the compounds are kept ready in DMSO solutions and diluted for the assay to a maximum DMSO concentration of 2%.

human TRPM8 receptor, sequence (Q7Z2W7 whole entry): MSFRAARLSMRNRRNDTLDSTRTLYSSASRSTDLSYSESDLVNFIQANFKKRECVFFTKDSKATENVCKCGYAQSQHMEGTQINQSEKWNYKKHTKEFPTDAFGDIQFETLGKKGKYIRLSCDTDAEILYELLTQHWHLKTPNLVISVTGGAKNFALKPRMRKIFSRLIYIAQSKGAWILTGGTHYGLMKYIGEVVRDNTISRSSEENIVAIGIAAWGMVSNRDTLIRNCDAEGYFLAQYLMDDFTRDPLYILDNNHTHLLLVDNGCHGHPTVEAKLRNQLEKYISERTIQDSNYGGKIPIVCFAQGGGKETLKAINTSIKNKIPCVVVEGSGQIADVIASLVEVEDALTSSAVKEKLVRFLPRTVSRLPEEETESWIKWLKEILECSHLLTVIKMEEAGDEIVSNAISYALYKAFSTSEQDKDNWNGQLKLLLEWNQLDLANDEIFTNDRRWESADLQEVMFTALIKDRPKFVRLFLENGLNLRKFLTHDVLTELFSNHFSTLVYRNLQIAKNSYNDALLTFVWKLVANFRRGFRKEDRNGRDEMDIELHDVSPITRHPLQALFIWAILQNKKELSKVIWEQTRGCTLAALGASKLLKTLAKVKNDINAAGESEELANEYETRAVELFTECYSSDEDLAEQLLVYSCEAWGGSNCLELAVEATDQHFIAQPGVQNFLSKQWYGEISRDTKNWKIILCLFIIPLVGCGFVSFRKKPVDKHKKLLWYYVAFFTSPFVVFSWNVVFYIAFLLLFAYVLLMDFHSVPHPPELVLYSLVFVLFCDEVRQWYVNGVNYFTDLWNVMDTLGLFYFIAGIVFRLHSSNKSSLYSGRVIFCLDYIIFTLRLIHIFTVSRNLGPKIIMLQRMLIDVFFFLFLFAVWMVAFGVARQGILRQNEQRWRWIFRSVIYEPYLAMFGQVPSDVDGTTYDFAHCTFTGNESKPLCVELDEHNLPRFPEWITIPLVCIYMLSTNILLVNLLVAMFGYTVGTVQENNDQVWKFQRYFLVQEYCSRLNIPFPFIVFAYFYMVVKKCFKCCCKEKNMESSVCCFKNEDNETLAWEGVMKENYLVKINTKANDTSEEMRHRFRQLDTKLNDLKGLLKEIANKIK

EC50 [nM]	SMILES
100	O=C1CCCC2=C1C1(CC3c4ccccc4CCN23)SCCS1 (centres unmarked) [Compound 1-1, 2,3,4,5,6,10b,11,12-octahydro-spiro[4b-azachrysene-12,2′-[1,3]dithioland-]-1-one]
600	CC1(C)CC(=O)C2=C(C1)N1CCc3ccccc3C1CC21SCCS1 (centres unmarked) [Compound 1-2, 2,3,4,5,6,10b,11,12-octahydro-3,3-dimethyl-spiro[4b-azachrysene-12,2′-[1,3]dithiolan]-1-one]
700	CC1OC(=O)C2=C1N1CCc3ccccc3C1CC21SCCS1 (centres unmarked) [Compound 1-3, 5,6,10b,11-tetrahydro-3-methyl-spiro[12H-benzo[a]furo[3,4-f]quinolizin-12,2′-[1,3]dithiolan]-1(3H)one]
3100	O=C1CCCC2=C1C1(CC3c4ccccc4CCN23)SCCCS1 (centres unmarked) [Compound 1-4, 2,3,4,5,6,10b,11,12-octahydro-spiro[4b-azachrysene-12,2′-[1,3]dithian]-1-one]
1400	CC1(C)CC(=O)C2=C(C1)N1CCc3ccccc3C1CC21SCCCS1 (centres unmarked) [Compound 1-5, 2,3,4,5,6,10b,11,12-octahydro-3,3-dimethyl-spiro[4b-azachrysene-12,2′-[1,3]dithian]-1-one]
200	C[C@H]1OC(=O)C2=C1N1CCc3ccccc3C1CC21SCCCS1 (some centres unmarked) [Compound 1-6]
700	C[C@H]1OC(=O)C2=C1N1CCc3ccccc3C1CC21[S+]([O-])CCS1(=O)=O (some centres unmarked) [Compound 1-7]
9800	CC1(C)CC(=O)C2=C(C1)N1CCc3ccccc3C1CC21[S+]([O-])CCS1(=O)=O (centres unmarked) [Compound 1-8]
10000	C[C@H]1OC(=O)C2=C1N1CCc3ccccc3C1CC2=O (some centres unmarked) [Compound 1-9]

Same assay, conditions: Table B, structure type 2; assay according to reference example 3

EC50 [nM]	SMILES
100	CC[C@@H](C)Nc1nc(-c2ccccn2)ncc1OC (stereo in doubt) [Compound 2-5, Sec-butyl-(5-methoxy-2-pyridin-2-yl-pyrimidin-4-yl)-amine]
100	COc1cnc(-c2ccccn2)nc1NC(C)C [Compound 2-1, Isopropyl-(5-methoxy-2-pyridin-2-yl-pyrimidin-4-yl)-amine]
800	COc1cnc(-c2ccccn2)nc1NC1CCC1 [Compound 2-3, Cyclobutyl-(5-methoxy-2-pyridin-2-yl-pyrimidin-4-yl)-amine]
1000	COc1cnc(-c2ccccn2)nc1N1CCOCC1 [Compound 2-4]
1000	COc1cnc(-c2ccccn2)nc1NC(C)CCO (centres unmarked) [Compound 2-9]
2200	COCC(C)Nc1nc(-c2ccccn2)ncc1OC (centres unmarked) [Compound 2-10]
1200	COc1cnc(-c2ccccn2)nc1NCC1CC1 [Compound 2-11]
11700	COc1cnc(-c2ccccc2)nc1N1CCOCC1 [Compound 2-13]
400	CCc1cnc(-c2ccccn2)nc1NC(C)C [Compound 2-14, (5-ethyl-2-pyridin-2-yl-pyrimidin-4-yl)-isopropyl-amine]
800	COc1cnc(-c2ccccn2)nc1NC(C)C [Compound 2-15, Isopropyl-(5-methoxy-2-pyridin-2-yl-pyrimidin-4-yl)-ammonium citrate]
1600	COc1cnc(-c2ccccn2)nc1NC(C)C [Compound 2-16, Isopropyl-(5-methoxy-2-pyridin-2-yl-pyrimidin-4-yl)-ammonium fumarate]
400	COc1cnc(-c2ccccn2)nc1NC(C)C [Compound 2-17, Isopropyl-(5-methoxy-2-pyridin-2-yl-pyrimidin-4-yl)-ammonium malate]
500	COc1cnc(-c2ccccn2)nc1NC(C)C [Compound 2-18, Isopropyl-(5-methoxy-2-pyridin-2-yl-pyrimidin-4-yl)-ammonium tartrate]
300	COc1cnc(-c2ccccn2)nc1NC(C)C [Compound 2-19, Isopropyl-(5-methoxy-2-pyridin-2-yl-pyrimidin-4-yl)-ammonium succinate]
900	COc1cnc(-c2ccccn2)nc1NC(C)C [Compound 2-20]
700	COc1cnc(-c2ccccn2)nc1NC(C)C [Compound 2-22]

Same assay, conditions: Table C, structure type 3; assay according to reference example 3

EC50 [nM]	SMILES
100	O=C(/C=C/c1ccc2c(c1)OCO2)N(c1ccccn1)C1CCCCC1 [Compound 3-1, (E)-3-benzo[1,3]dioxol-5-yl-N-cyclohexyl-N-pyridin-2-yl-acrylamide]
11800	O=C(/C=C/c1ccc2c(c1)OCO2)N(C1CCCCC1)C1CCCCC1 [Compound 3-2]
900	O=C(/C=C/c1ccc2c(c1)OCO2)N(c1ccccc1)C1CCCCC1 [Compound 3-3]
800	CCN(C(=O)/C=C/c1ccc2c(c1)OCO2)C1CCCCC1 [Compound 3-4]
200	CC(C)N(C(=O)/C=C/c1ccc2c(c1)OCO2)C1CCCCC1 [Compound 3-5, (E)-3-benzo[1,3]dioxol-5-yl-N-cyclohexyl-N-isopropyl-acrylamide]
800	O=C(/C=C/c1ccc2c(c1)OCO2)N(c1ccccc1)c1ccccc1 [Compound 3-6, (E)-3-benzo[1,3]dioxol-5-yl-N,N-diphenyl-acrylamide]
1100	CCCN(C(=O)/C=C/c1ccc2c(c1)OCO2)c1ccccc1 [Compound 3-7]
600	CC(C)N(C(=O)/C=C/c1ccc2c(c1)OCO2)c1ccccc1 [Compound 3-8]
700	CCCCN(C(=O)/C=C/c1ccc2c(c1)OCO2)c1ccccc1 [Compound 3-9]
1200	O=C(/C=C/c1ccc2c(c1)OCO2)N(Cc1ccccc1)c1ccccc1 [Compound 3-10]
6200	CCN(C(=O)/C=C/c1ccc2c(c1)OCO2)c1ccccn1 [Compound 3-11]
700	O=C(/C=C/c1ccc2c(c1)OCO2)N(Cc1ccccc1)c1ccccn1 [Compound 3-12]
3900	CC(C)N(Cc1ccccc1)C(=O)/C=C/c1ccc2c(c1)OCO2 [Compound 3-13]
1500	CCN(Cc1ccccc1)C(=O)/C=C/c1ccc2c(c1)OCO2 [Compound 3-14]
12300	CCN(CC)C(=O)/C=C/c1ccc2c(c1)OCO2 [Compound 3-15]
8200	CC(C)CN(C(=O)/C=C/c1ccc2c(c1)OCO2)c1ccc(Cl)cc1 [Compound 3-16]
400	COc1ccc(/C=C/C(=O)N(c2ccccn2)C2CCCCC2)cc1 [Compound 3-17, 4-methoxycinammic acid-N-cyclohexyl-N-2-pyridylamide]
100	COc1ccc(/C=C/C(=O)N(C2CCCCC2)C2CCCCC2)cc1 [Compound 3-18, (E)-N,N-dicyclohexyl-3-(4-methoxy-phenyl)-acrylamide]
700	COc1ccc(/C=C/C(=O)N(c2ccccc2)C2CCCCC2)cc1 [Compound 3-19]
1100	COc1ccc(/C=C/C(=O)N(c2ccccc2)c2ccccc2)cc1 [Compound 3-20, 4-methoxycinammic acid-N,N-diphenylamide]

EC50 [nM]	SMILES
1700	CCCN(C(=O)/C=C/c1ccc(OC)cc1)c1ccccc1 [Compound 3-21]
1300	COc1ccc(/C=C/C(=O)N(c2ccccc2)C(C)C)cc1 [Compound 3-22]
3200	COc1ccc(/C=C/C(=O)N(Cc2ccccc2)c2ccccc2)cc1 [Compound 3-23]
2200	COc1ccc(/C=C/C(=O)N(Cc2ccccc2)c2ccccn2)cc1 [Compound 3-24]
2300	O=C(/C=C/c1ccccc1)N(c1ccccn1)C1CCCCC1 [Compound 3-25, Cinammic acid-N-cyclohexyl-N-2-pyridylamide]
600	O=C(/C=C/c1ccccc1)N(c1ccccc1)C1CCCCC1 [Compound 3-26, (E)-N-cyclohexyl-3,N-diphenyl-acrylamide]
2900	O=C(/C=C/c1ccccc1)N(c1ccccc1)c1ccccc1 [Compound 3-27, Cinammic acid-N,N-diphenylamide]
2400	O=C(/C=C/c1ccccc1)N(Cc1ccccc1)c1ccccc1 [Compound 3-28]
800	CC(C1CC1)N(C(=O)/C=C/c1ccccc1)c1ccccc1 (centres unmarked) [Compound 3-29]
400	Cc1ccccc1/C=C/C(=O)N(c1ccccn1)C1CCCCC1 [Compound 3-30]
300	Cc1cccc(/C=C/C(=O)N(c2ccccn2)C2CCCCC2)c1 [Compound 3-31, (E)-N-cyclohexyl-N-pyridin-2-yl-3-m-tolyl-acrylamide]
300	Cc1ccc(/C=C/C(=O)N(c2ccccn2)C2CCCCC2)cc1 [Compound 3-32, (E)-N-cyclohexyl-N-pyridin-2-yl-3-p-tolyl-acrylamide]
2100	Cc1ccc(/C=C/C(=O)N(C2CCCCC2)C2CCCCC2)cc1 [Compound 3-33]
4000	Cc1ccc(/C=C/C(=O)N(c2ccccc2)c2ccccc2)cc1 [Compound 3-34, 4-methylcinammic acid-N,N-diphenylamide]
1800	Cc1ccc(/C=C/C(=O)N(c2ccccc2)C(C)C)cc1 [Compound 3-36]
3000	COc1cccc(/C=C/C(=O)N(c2ccccn2)C2CCCCC2)c1 [Compound 3-37]
700	COc1cccc(/C=C/C(=O)N(c2ccccn2)C2CCCCC2)c1OC [Compound 3-38]
2600	COc1cccc(/C=C/C(=O)N(c2ccccc2)C2CCCCC2)c1OC [Compound 3-39]
5900	COc1cccc(/C=C/C(=O)N(c2ccccc2)c2ccccc2)c1OC [Compound 3-40]
700	O=C(/C=C/c1ccccc1Cl)N(c1ccccn1)C1CCCCC1 [Compound 3-41]
